Data on 1 compound can be found in US20230364057A1, “BACTERIAL DNA GYRASE INHIBITORS AND METHODS OF USE THEREOF” (THE FLORIDA INTERNATIONAL UNIVERSITY BOARD OF TRUSTEES, priority 2022, published 2023).

pIC50: −log10 of the molar value. Several values for one entry are separate records, joined by “and”; a condition that tells them apart may be missing. Equal values may be shown once. Entries after “also recorded” stand apart in the source; their conditions may differ. A value given as a limit tells only on which side of the number the result lay.

The nature of data set [1]: in vitro. As to conditions: human.
For data set [2], the system named is E. coli (ATCC 25922). The experiment in a line: Minimum inhibitory concentration, broth microdilution.
Data set [3] relates to M. abscessus. Kind of data set: MIC against M. abscessus. It is filed as cell-based, Mycobacterium abscessus. Conditions: Mycobacteroides abscessus.
For data set [4], the system named is Mtb. The experiment in a line: Mtb whole cell assay (% inhibition, MIC). In kind it is cell-based, Mycobacterium tuberculosis. As to conditions: Mycobacterium tuberculosis.
Data set [5] has as its target T1, E. coli DNA gyrase (Escherichia coli (strain K12), UniProt P0AES4+P0AES6). Kind of data set: DNA gyrase mediated DNA cleavage assay. In kind it is biochemical. Conditions: pBR322. The gist of the method: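 Supercoiled pBR322 (250 ng) incubated with 50 nM E. coli gyrase, 1.75 mM ATP and 200 µM compound in Tris-HCl/KCl/MgCl2/DTT/BSA/glycerol buffer, 37° C, 15 min. Complexes trapped with SDS and proteinase K (37° C, 1 h); cleavage products resolved on ethidium-stained agarose gel.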

Data set [6] concerns S. aureus (ATCC 14775). The experiment in a line: Minimum inhibitory concentration, broth microdilution. Conditions: Staphylococcus aureus, ATCC14775, read-out: MIC (µM) Sa.
Method: Antibacterial minimum inhibitory concentrations (MICs) were obtained from three independent experiments using broth microdilution methods in 96-well plates according to Clinical and Laboratory Standards Institute guidelines. Cells were culture from singles colonies in MHIIB medium for 24 h at 37° C. in agitation (200 RPM). The cultures were then diluted using the same media to reach an OD600 of 0.1. Then, 50 µL of the diluted cultures were added to the plates holding 50 µL of serially diluted compounds in MHIIB. The plates were incubated at 37° C. for 20 h. The starting inoculum was fixated to 10^5 colony-forming units per ml.
In data set [7] the target is T1, E. coli DNA gyrase. Kind of data set: biochemical. It is filed as biochemical.
Data set [8] has as its target Mtb gyrase (Mycobacterium tuberculosis (strain ATCC 25618 / H37Rv), UniProt P9WG45+P9WG47). Kind of data set: Mtb gyrase mediated DNA cleavage assay. In kind it is biochemical. As to conditions: pBR322, 50-100 µM. On the procedure: The IC50 against E. coli (A) and Mtb (C) gyrase were determined using the gel-based gyrase inhibition assays. The gyrase mediated DNA cleavage assays (B and D) were performed using pBR322. (A) 229 inhibits E. coli gyrase. Lane 1, rx pAB1. […] Lane 1, rx pAB1. […] 100 µM of CPDs were used. Symbols rx, nk, In, and sc represent relaxed, nicked, linear, and supercoiled DNA, respectively.

In data set [9] the test system is NCI panel of 60 cancer cell lines. Conditions: up to 1 mM; results of NCI DTP; cited from earlier work.
For data set [10], the target named is T1, E. coli DNA gyrase. Kind of data set: Agarose gel-based DNA gyrase inhibition assay. In kind it is biochemical. On the procedure:
100 ng of DNA gyrase was used to supercoil the rx pAB1 in the presence of different concentrations of a gyrase inhibitor. […] Samples were analyzed by electrophoresis in 1% w/v agarose gels followed by ethidium bromide staining and photographed under UV light.

Data set [11] is described as follows: in vitro. Conditions: mouse.
The target of data set [12] is Mtb DNA gyrase (Mycobacterium tuberculosis (strain ATCC 25618 / H37Rv), UniProt P9WG45+P9WG47). The experiment in a line: Mtb DNA gyrase inhibition assay (gel-based). In kind it is biochemical. A digest of the protocol: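 Supercoiling by 100 ng Mtb gyrase of 400 ng relaxed pAB1 in buffer with 1.75 mM ATP, pH 7.5, across inhibitor concentrations. Reactions ran 15 min at 37° C, stopped with SDS/EDTA. Products resolved on 1% agarose, ethidium bromide-stained; IC50 determined from gels.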

The test system of data set [13] is CDF1 mice. Conditions: 800 mg/kg, 5 days, results of NCI DTP; cited from earlier work.

`C[n+]1c(-c2ccc(C=NNC(=O)c3ccc(C(=O)NN=Cc4ccc(-c5cn6ccccc6[n+]5C)cc4)cc3)cc2)cn2ccccc21` [Compound 229]: the pIC50 is less than 3.70 in [1]; 4.80 in data set [10] (gel-based, read-out: IC50 against E. coli DNA gyrase); less than 3.70 in data set [11]. For the same compound, the “MIC (µM) Ec” value in data set [2] (E. coli strain ATCC25922) amounted to 12.5 µM. Besides, the MIC in data set [2] (Escherichia coli, ATCC25922, read-out: MIC (µM) Ec, E. coli strain ATCC25922) is 6.25 to 12.5 µM; in [3], 10.1 µM; in data set [4] it was 7.1 µM; in data set [6], greater than 200 µM. Besides, the “E. coli DNA gyrase-mediated DNA breaks and nicking” value in data set [5] is recorded as “enhances the E. coli gyrase-mediated DNA nicking; also recorded: induces DNA nicking”. For the same compound, the “inhibition of E. coli DNA gyrase activities” value in [7] is “inhibits”; in [10] (50 µM of compounds), “completely inhibited”; in data set [10] (200 µM of compounds) it was “completely inhibited”. For the same compound, the “Mtb gyrase-mediated DNA nicking and double-stranded breaks” value in data set [8] was “significantly enhances the gyrase-mediated DNA nicking and double-stranded breaks”. The “cytotoxicity against the NCI panel of 60 cancer cell lines” value in data set [9] is given as “no cytotoxicity”. In addition, the “inhibition of Mtb DNA gyrase activities” value in data set [12] is listed as “potently inhibits”. Besides, the half-maximal inhibitory concentration (IC50) in data set [12] (Table 10, read-out: IC50 (µM) Mtb gyrase) was ~2.6 µM and 2.6 µM. In addition, the survival in data set [13] is listed as 100%.
